Data as given in US20080201790A1, “Method and product for regulating cell responsiveness to external signals” (priority 1993, published 2008).

Test system: p42/p44 MAPK
Experiment: MAPK assay (DEAE-Sephacel, EGFR662-681 peptide) in L929 cells
Format: cell-based, murine
Experimental: In panel A cells were treated for 10 minutes with the indicated concentration of TNFα. JNK activation was measured using a solid phase kinase assay resulting in phosphorylation of GST-Jun. In […] the time course of MAPK activation is shown. MAPK was isolated from cell lysates on DEAE sephacel columns and MAPK activation was measured by phosphorylation of the EGFR peptide substrate. Panel C depicts the concentration curve of MAPK activation by TNFα. Cells were treated with the indicated concentration of TNFα and MAPK was assayed.
FIG. 26 depicts the activation of MAPK by bFGF in L929 cells. Serum starved L929 cells were stimulated for 10 min with the indicated concentration of bFGF.
Cell lines and culture. L929 cells (ATCC CCL1 were maintained in Dulbecco's modified Eagle's medium with 5% newborn calf serum and 5% bovine calf serum (BCS) supplemented with 100 ug/ml streptomycin and 100 U/ml penicillin. The cells were grown in 10 cm dishes at 37° C. in 7.5% CO2. Cells were made quiescent where indicated by incubation in Dulbecco's modified Eagle's medium and 0.1% bovine serum albumin for 24 h. Recombinant murine TNFα and recombinant human bFGF (147aa) were from R&D Systems, Minneapolis, Minn. Cells were pretreated where indicated with the MEK-1 inhibitor PD#098059 (Parke-Davis Pharmaceutical Corp. Ann Arbor, Mich.) for 1 h at 37° C. Cells were stimulated by incubation with the indicated cytokine or growth factor for various times at 37° C. Stimulation was stopped by rinsing the plates twice with ice cold phosphate buffered saline (PBS) and lysing the cells in the appropriate lysis buffer. Cells were scraped from the plates and nuclei were pelleted for 10 min at 14,000 RPM in a microcentrifuge. JNK assay. JNK activity was measured using a solid state kinase assay in which glutathione S-transferase-c-Jun (1-79) (GST-JUN) cound to glutathione-Sepharose 4B beads was used to affinity purify JNK and then JNK activity was measured in an in vitro kinase assay using the sepharose bound GST-Jun as a substrate (Hibi, M., et al. (1993) Genes & Development 7:2135-2148). Stimulated or unstimulated cells were lysed in 0.5% Nonidet P-40, 20 mM HEPES pH 7.2, 100 mM NaCl, 2 mM dithiothreitol, 1 mM EDTA, 1.0 mM phenylmethylsulfonylfluoride, 1 μg/ml aprotinin and the nuclei pelleted. Lysates were normalized for protein content. JNK was affinity purified from 50-100 μg of cell lysate by the addition of 10 ul of GST-Jun sepharose slurry (2 μg GST-Jun). Binding to GST-Jun efficiently isolates the two major forms of JNK (p45 and p55) and under the conditions used JNK isolation was linear for 10-250 μg of cell lysate. The lysates were rotated at 4° C. for 1-3 h. Beads were washed twice in lysis buffer and then twice in PAN (10 mM PIPES, pH 7.0, 100 mM NaCl, 21 μg/ml aprotinin). Kinase reactions were carried out at 30° C. for 15 min in 20 mM Hepes pH 7.2, 20 mM β-glycerophosphate, 10 mM p-nitrophenyl phosphate, 10 mM MgCl2, 1 mM dithiothreitol, 50 μm sodium vanadate, 10 μCi γ^32P-ATP 4300 Ci/mmole. The kinase reaction was linear from 0-30 min. MAPK Assay MAPK activity was measured exactly as described previously (Gardner, A. M., et al. (1994) Meth. Enzymol. 238:258-270) with the exception that MonoQ FPLC fractionation was replaced by step elution from a DEAE-Sephacel column using 0.5 M NaCl in loading buffer. The eluate was assayed in triplicate using the epidermal growth factor receptor 662-681 peptide (EGFR662-681) as a selective substrate for MAPK activity (Heasley, L. E., et al. (1994) American Journal of Physiology (Renal Fluid Electrolyte Physiol. 36) 267:F366-F373). […] Cells were lysed by scraping in ice cold RIPA buffer (50 mM Tris-HCl, pH 7.2, 150 mM NaCl, 0.1% SDS, 0.5% sodium deoxycholate, 1.0% Triton X-100, 10 mM sodium pyrophosphate, 25 mM β-glycerophosphate, 2 mM sodium vanadate, 2.1 μg/ml aprotinin) and the nuclei were pelletted. […]

Substance | concentrations giving maximal stimulation of MAPK activity (serum starved L929 cells, 10 min) [ng/mL] | MAPK activity stimulated above basal (1 ng/ml TNFα) [%] | effect on MAPK activity (1 ng/ml TNFα, FIG. 27 panel B) | concentration required to stimulate p42/p44 MAPK 2-3 fold (L929 cells) | effect on bFGF stimulation of MAPK activity (L929 cells) | time to maximal stimulation of p42/p44 MAPK activity (L929 cells) [min]
bFGF: recombinant human bFGF (147aa), basic fibroblast growth factor | 0.25 to 0.5 | – | – | – | – | –
TNFα | – | 20 | only modest stimulatory effects on MAPK activity | Greater than 10 ng/ml | had little or no effect on bFGF stimulation of MAPK activity | 5 to 10
